Experiments:
B16-F10 [1] = experiment: Inhibition of melanin production in mouse B16F10 cells at 40 ug/ml after 72 hrs relative to control; assay type: functional; settings: B16-F10, 72 h
Tyrosinase = biological target: T1, Tyrosinase (Agaricus bisporus, UniProt O42713); experiment: Inhibition of mushroom tyrosinase
T1 sequence (O42713 whole entry): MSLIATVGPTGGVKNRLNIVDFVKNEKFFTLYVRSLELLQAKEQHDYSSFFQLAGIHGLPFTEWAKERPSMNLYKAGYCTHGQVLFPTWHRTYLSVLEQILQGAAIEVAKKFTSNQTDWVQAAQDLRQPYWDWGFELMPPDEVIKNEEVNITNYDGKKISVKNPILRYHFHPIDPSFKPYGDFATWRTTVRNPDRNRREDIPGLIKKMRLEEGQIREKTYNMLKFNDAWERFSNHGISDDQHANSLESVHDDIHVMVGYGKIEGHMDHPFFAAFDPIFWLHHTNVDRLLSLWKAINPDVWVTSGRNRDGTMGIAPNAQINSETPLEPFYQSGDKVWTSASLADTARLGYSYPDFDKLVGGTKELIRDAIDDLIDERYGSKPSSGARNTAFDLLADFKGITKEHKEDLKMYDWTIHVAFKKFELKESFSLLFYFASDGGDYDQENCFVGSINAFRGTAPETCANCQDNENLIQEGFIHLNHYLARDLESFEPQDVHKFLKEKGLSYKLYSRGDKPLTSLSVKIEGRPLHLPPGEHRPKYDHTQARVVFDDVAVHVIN

B16-F10 [2] = experiment: Inhibition of melanin production in mouse B16F10 cells at 20 ug/ml after 72 hrs relative to control; assay type: functional; settings: B16-F10, 72 h
B16-F10 [3] = experiment: Cytotoxicity against mouse B16F10 cells at 20 ug/ml after 72 hrs by MTT assay; assay type: functional
B16-F10 [4] = experiment: Cytotoxicity against mouse B16F10 cells at 40 ug/ml after 72 hrs by MTT assay; assay type: functional

SMILES | IC50 (Tyrosinase) [µM] | inhibition at 40 µg/mL (B16-F10 [1]) [%] | inhibition at 20 µg/mL (B16-F10 [2]) [%] | Activity (B16-F10 [3]) [%] | Activity (B16-F10 [4]) [%]
CCCCCCCCOC(=O)/C=C/c1cc(=O)c(O)co1 | > 400 | 54.6 | 25 | 85 | 62.5
O=C(/C=C/c1cc(=O)c(O)co1)OCCOCCO | 26.5 | 32.4 | 20.1 | 84.6 | 89.4
COCCOCCOCCOC(=O)/C=C/c1cc(=O)c(O)co1 | 67.6 | 25.4 | 11 | 83.9 | 79.7
O=C(/C=C/c1cc(=O)c(O)co1)OCCOCCOCCO | 79.2 | 17.9 | 8.7 | 84.9 | 78.5
COCCOCCOC(=O)/C=C/c1cc(=O)c(O)co1 | 59.1 | 24 | 19.5 | 88.7 | 83.4

Continued, in another order:

IC50 (Tyrosinase) [µM] | SMILES | inhibition at 40 µg/mL (B16-F10 [1]) [%] | inhibition at 20 µg/mL (B16-F10 [2]) [%] | Activity (B16-F10 [3]) [%] | Activity (B16-F10 [4]) [%]
80.3 | CC(C)OC(=O)/C=C/c1cc(=O)c(O)co1 | 69.8 | 19.5 | 50.9 | 37.4
74.9 | O=C(/C=C/c1cc(=O)c(O)co1)OCCO | 41.6 | 30 | 80.5 | 74.8
36.3 | CCOC(=O)/C=C/c1cc(=O)c(O)co1 | 65 | 46.1 | 72 | 39.2
98.1 | COCCOC(=O)/C=C/c1cc(=O)c(O)co1 | 47.8 | 29.6 | 81.1 | 65.4

Source: ChEMBL document CHEMBL1139277, “Synthesis of tyrosinase inhibitory (4-oxo-4H-pyran-2-yl)acrylic acid ester derivatives” (Bioorg Med Chem Lett, 2009)
